In US10246498B2, “Genetically encoded histone reporter allele constructs” (THE JOHNS HOPKINS UNIVERSITY, priority 2014, dated 2019):
Entries after “also recorded” stand apart in the source; their conditions may differ.

Columns and labels:
[1] = test system: H3K4me3 in the GCL; test: Immunofluorescence of H3K4me3 in dentate gyrus GCL after oral AR-42; assay type: in vivo, mouse
From the text: Kmt2d^+/βGeo mice, also named Mll2Gt^(RRt024)Byg, were acquired from Bay Genomics (University of California). All experimental mice were on a mixed C57BL/6J and 129/SvEv background. Expected Mendelian ratios were observed when heterozygous animals were bred to wild-type. In heterozygous crosses, however, there was uniform embryonic lethality of homozygotes by ED12, the earliest developmental stage assayed. For treatment with AR-42, mice were orally gavaged daily with drug (Selleck Chemicals, Houston, Tex.) solubilized in vehicle (0.5% methylcellulose, 0.1% Tween-80, water) or with vehicle alone. Drug delivery information was kindly provided by Drs. […] For quantification of DCX positive cells, doses of 0, 5, 10 and 25 mg/kg/day were used. […] Maxillary protrusion was evaluated by ten investigators blinded to genotype and they were asked to rate maxillary protrusion on radiographs as either large (2) or small (1). […]
Z-stack images of slides were taken at either 10× using Zeiss Axiovert 200 with 510-Meta confocal module (Carl Zeiss, Jena, GER) or 25× using Zeiss AxioExaminer with 710NLO-Meta multiphoton (Carl Zeiss, Jena, GER). From 10× pictures, the GCL was highlighted and fluorescent intensities for both DAPI and H3K4me3 were measured at the midpoint of the entire z-stack (Zen software, Carl Zeiss, Jena, GER) with the value for Kmt2d^+/+ animals set equal to one. […]

[2] = test system: genome-wide H3K4me3; test: ChIP-seq of H3K4me3 in spleen cells of treated mice; assay type: in vivo, mouse; conditions: 10 mg/kg/day, spleen cells of Kmt2d+/βGeo mice
Procedure: Spleens were dissected from eight mice, four from each kmt2d genotype (+/βGeo or +/+) where half of each genotype was treated with AR-42 and half with vehicle only. Spleens were minced and passed through a 40 μm cell strainer to obtain single cell suspensions. 10 million cells were used for each ChIP-seq experiment following the native chromatin immunoprecipitation protocol, as previously described (Gilfillan et al. (2012) BMC Genomics 13:645), using a ChIP-grade antibody against H3K4me3 (9727, Cell Signaling Technology, Beverly, Mass.).
Sequencing was performed using a MiSeq system (Illumina, San Diego, Calif.). 4.8-9.6 million paired-end 26 bp reads were obtained per sample (Table 1; nReads=number of reads, alignRate=fraction aligned to genome; FRIP=fraction of reads in peaks). Reads were aligned to the m. musculus genome, version mm10, using Bowtie 2 (Langmead and Salzberg (2012) Nat. Methods. 9: 357-9). Each sample was examined with regard to alignment rate as well as FRIP (fraction of reads in peaks), a measure of the ChIP efficiency (Table 1). […] For analysis, reads were merged into one meta-sample and peak calling was performed using MACS version 1.4.2 (Zhang et al. (2008) Genome Biol. 9: R137). […] This created a peak by sample matrix of read counts. […] Fold change and overall abundance was calculated as per edgeR. […]

## CC(C)[C@H](C(=O)Nc1ccc(C(=O)NO)cc1)c1ccccc1 [AR-42]
[1]; 25 mg/kg/day, oral, two weeks
  H3K4me3 in the GCL: increased H3K4 trimethylation; also recorded: increased H3K4me3
[1]; 5 and 10 mg/kg/day, both genotypes
  H3K4me3 in the GCL: dose-dependent increase in H3K4me3
[2]
  genome-wide deficiency of H3K4me3 (ChIP-seq): genome-wide increase in H3K4me3; also recorded: overcorrection; also recorded: improved; also recorded: recovered; also recorded: normalized (but somewhat over corrected)
